Experimental data: patent US20180327367A1, “MACROCYCLIC BROAD SPECTRUM ANTIBIOTICS” (priority 2015, published 2018)
In brackets after ≈: the same amount, converted by molar mass. Like-named read-outs stand apart in the source and are kept apart here.

Columns and labels:
[1] = system: Escherichia coli MC4100 harboring the IMP4213 (E. coli IMP); assay: microbe, parasite or virus in culture; format: cell-based; details: Escherichia coli, 22 h, read-out: MIC (μg/mL) E. coli IMP, E. coli MC4100 IMP4213, increased outer-membrane permeability; 35° C., 22 hours
How it was run: (§1)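 Ten-point 2-fold series began at 4 μg/mL in protocol 2 and 0.5 μg/mL in protocol 3, in cation-adjusted MHB plus 0.002% Tween-80. Bacteria added to OD600 0.0005 final and incubated at 35° C for 22 hours per CLSI microdilution.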

[2] = system: Escherichia coli ATCC 25922; assay: Minimum inhibitory concentration, broth micro-dilution (CLSI), E. coli; format: cell-based; details: Escherichia coli, ATCC25922, 22 h, 35° C., 22 hours
[3] = system: Methicillin Resistant Staphylococcus aureus strain USA 300, NRS384; assay: Minimum inhibitory concentration, broth micro-dilution (CLSI), S. aureus; format: cell-based; details: Staphylococcus aureus, MRSA / NRS 384 / USA300, 22 h, 35° C., 22 hours
How it was run: as §1

[4] = molecular target: T1, SpsB (Staphylococcus aureus signal peptidase) (Staphylococcus aureus, UniProt P0A070); assay: cell-based; format: biochemical; details: SpsB IC50, whole-cell S. aureus (USA300 background, overexpressing SpsB) as SpsB source; fluorogenic peptide substrate, kinetic read 30 min
T1 construct: This assay uses a suspension of Staphylococcus aureus cells as a source of SpsB instead of recombinant SpsB protein; endogenous in cells; host or cells: S. aureus, USA300 background, overexpressing SpsB (whole-cell suspension from frozen pellets)
T1 sequence (P0A070 whole entry): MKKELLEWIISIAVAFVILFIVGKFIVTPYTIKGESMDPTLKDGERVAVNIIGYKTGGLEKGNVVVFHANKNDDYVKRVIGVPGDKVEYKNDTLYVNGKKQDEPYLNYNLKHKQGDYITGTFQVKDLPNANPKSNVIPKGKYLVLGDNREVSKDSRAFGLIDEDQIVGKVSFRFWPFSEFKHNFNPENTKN
Method: A kinetic fluorogenic enzyme activity assay was used to assess inhibition of SpsB (Staphylococcus aureus signal peptidase) activity and IC50s were determined. This assay uses a suspension of Staphylococcus aureus cells as a source of SpsB instead of recombinant SpsB protein.
Cell preparation: Luria broth (LB) was inoculated with S. aureus (USA300 background, overexpressing SpsB) and shaken at 37° C. until an OD600 nm of 1.5-2.0 was reached (˜4 hr). The culture was then diluted to an OD600 nm of 1.0 with LB, aliquoted and centrifuged at 10,000×g for 2 mins. The supernatant was removed and the pellet was resuspended in phosphate buffer (1×PBS, 12.5 mg/L MgCl2, 25 mg/L CaCl2, 0.1% Tween-80) to an OD600 nm of 0.5, then centrifuged again at 10,000x g for 2 mins. The supernatant was removed and the pellets were frozen at −20° C.
Test compounds were prepared in DMSO at a concentration of 10 mg/mL. These compound stocks were diluted into DMSO to a concentration of 25 μg/mL and serial 3-fold dilutions were made in DMSO, for a total of 11 compound concentrations. 20 nL of each compound solution was pre-spotted into a white 384-well plate (50 μL/well polypropylene, Nunc) using acoustic fluid transfer (Echo).
Frozen S. aureus pellets were resuspended in assay buffer (1x PBS, 12.5 mg/L MgCl2, 25 mg/L CaCl2, 0.1% Tween-80) to an OD600 nm of 0.05, then mixed 1:1 (v/v) with 20 μM substrate ((Dabcyl)βAla-KPAKAAE(Edans)) in assay buffer, and this solution was added (20 μL/well) to the 384-well plate that had been pre-spotted with compound. Fluorescence intensity was then immediately read kinetically for 30 minutes with 2 minute read intervals to monitor cleavage of the internally quenched peptide substrate (excitation wavelength=340 nm, emission wavelength=490 nm, Molecular Devices Spectramax M5). Reaction rate (slope) was plotted against inhibitor concentration to derive the IC50.

[5] = E. coli ATCC 25922, read-out: MIC (μg/mL) E. coli
[6] = MRSA USA 300 NRS384, read-out: MIC (μg/mL) S. aureus
[7] = read-out: MIC (μg/mL) E. coli, E. coli ATCC 25922
[8] = read-out: MIC (μg/mL) S. aureus, MRSA USA 300 NRS384

SMILES | MIC [1] [µg/mL] | MIC [2, 5] [µg/mL] | MIC [3, 6] [µg/mL] | IC50 [4] [pM] | MIC [2, 7] [µg/mL] | MIC [3, 8] [µg/mL]
CCCCCCCOc1ccc(C(=O)N[C@@H](CCN)C(=O)N(C)[C@@H]2C(=O)N[C@@H](C)C(=O)N[C@H](C(=O)NCC#N)Cc3ccc(OCCN)c(c3)-c3cc2ccc3OCCN)c(C)c1 [Compound 268] | < 0.0039 | 0.22 (≈ 0.253 µM) | 0.035 (≈ 0.0402 µM) | 860 |  | 
CCCCCCCCc1ccc(C(=O)N[C@@H](CCN)C(=O)N(C)[C@@H]2C(=O)N[C@@H](C)C(=O)N[C@H](C(=O)NCC#N)Cc3ccc(OCCN)c(c3)-c3cc2ccc3OCCN)c(OCC(N)=O)c1 [Compound 407] | 0.047 (≈ 0.0507 µM) | 4 (≈ 4.31 µM) | 0.047 (≈ 0.0507 µM) | 1100 |  | 
Cc1nc(Oc2ccc(CC(C)C)cc2)ncc1C(=O)N[C@@H](CCN)C(=O)N(C)[C@@H]1C(=O)N[C@@H](C)C(=O)N[C@H](C(=O)NCC#N)Cc2ccc(OCCN)c(c2)-c2cc1ccc2OCCN [Compound 304] | 0.016 (≈ 0.0177 µM) | 1 (≈ 1.1 µM) | 0.047 (≈ 0.0519 µM) | 680 |  | 
CCCCCCCCCC(=O)N[C@@H](CC(N)=O)C(=O)N(C)[C@@H]1C(=O)N[C@@H](C)C(=O)N[C@H](C(=O)NCC#N)Cc2ccc(OCCN)c(c2)-c2cc1ccc2OCCN [Compound 236] | 1.5 (≈ 1.86 µM) | > 64 | 1 (≈ 1.24 µM) | 1500 |  | 
Cc1cc(C2CCCCCC2)ccc1C(=O)N[C@@H](CCN)C(=O)N(C)[C@@H]1C(=O)N[C@@H](C)C(=O)N[C@H](C(=O)NCC#N)Cc2ccc(OCCN)c(c2)-c2cc1ccc2OCCN [Compound 436] | 0.0078 (≈ 0.00915 µM) | 0.38 (≈ 0.446 µM) | 0.047 (≈ 0.0552 µM) | 780 |  | 
Cc1nc(Oc2ccc(C(C)(C)C)cc2)ncc1C(=O)N[C@@H](CCN)C(=O)N(C)[C@@H]1C(=O)N[C@@H](C)C(=O)N[C@H](C(=O)NCC#N)Cc2ccc(OCCN)c(c2)-c2cc1ccc2OCCN [Compound 305] | 0.016 (≈ 0.0177 µM) | 1 (≈ 1.1 µM) | 0.063 (≈ 0.0695 µM) | 730 |  | 
CCCCCCCCCCNCC(=O)N(C)[C@@H]1C(=O)N[C@@H](C)C(=O)N[C@H](C(=O)NCC#N)Cc2ccc(OCCN)c(c2)-c2cc1ccc2OCCN [Compound 132] | 3 (≈ 4.08 µM) |  |  | 710 | > 64 | 0.25 (≈ 0.34 µM)
C#CCC(C)(C)COc1ccc(C(=O)N[C@@H](CCN)C(=O)N(C)[C@@H]2C(=O)N[C@@H](C)C(=O)N[C@H](C(=O)NCC#N)Cc3ccc(OCCN)c(c3)-c3cc2ccc3OCCN)c(C)c1 [Compound 284] | 0.012 (≈ 0.0139 µM) |  |  | 820 | 1 (≈ 1.15 µM) | 0.13 (≈ 0.15 µM)
CCC(C)(C)c1ccc(C(=O)N[C@@H](CCN)C(=O)N(C)[C@@H]2C(=O)N[C@@H](C)C(=O)N[C@H](C(=O)NCC#N)Cc3ccc(OCCN)c(c3)-c3cc2ccc3OCCN)c(C)c1 [Compound 265] | 0.043 (≈ 0.0521 µM) |  |  | 890 | 2.5 (≈ 3.03 µM) | 0.13 (≈ 0.157 µM)
CCCCc1ccc(C#CC(=O)N[C@@H](CCN)C(=O)N(C)[C@@H]2C(=O)N[C@@H](C)C(=O)N[C@H](C(=O)NCC#N)Cc3ccc(OCCN)c(c3)-c3cc2ccc3OCCN)cc1 [Compound 124] | 0.031 (≈ 0.0377 µM) | 2 (≈ 2.43 µM) | 0.13 (≈ 0.158 µM) | 1600 |  | 
CCCCCCCCc1cc(C)c(C(=O)N[C@@H](CCN)C(=O)N(C)[C@@H]2C(=O)N[C@@H](C)C(=O)N[C@H](C(=O)NCC#N)Cc3ccc(OCCN)c(c3)-c3cc2ccc3OCCN)s1 [Compound 438] | 0.031 (≈ 0.0355 µM) | 0.38 (≈ 0.435 µM) | 0.063 (≈ 0.0721 µM) | 780 |  | 
CCCCCCCCCCCCCC(=O)N1C[C@@H](N)CC1C(=O)N(C)[C@@H]1C(=O)N[C@@H](C)C(=O)N[C@H](C(=O)NCC#N)Cc2ccc(OCCN)c(c2)-c2cc1ccc2OCCN (some centres unmarked) [Compound 481] | 0.0078 (≈ 0.00907 µM) | 0.25 (≈ 0.291 µM) | 0.047 (≈ 0.0546 µM) | 1200 |  | 
Cc1cc(-c2ccc(-c3ccccc3)cc2)ccc1C(=O)N[C@@H](CCN)C(=O)N(C)[C@@H]1C(=O)N[C@@H](C)C(=O)N[C@H](C(=O)NCC#N)Cc2ccc(OCCN)c(c2)-c2cc1ccc2OCCN [Compound 144] | 0.053 (≈ 0.0584 µM) | 0.16 (≈ 0.176 µM) | 0.031 (≈ 0.0341 µM) | 910 |  | 
CC(C)Cc1ccc(-c2ccc(C(=O)N[C@@H](CCN)C(=O)N(C)[C@@H]3C(=O)N[C@@H](C)C(=O)N[C@H](C(=O)NCC#N)Cc4ccc(OCCN)c(c4)-c4cc3ccc4OCCN)c(C(F)F)c2)cc1 [Compound 172] | 0.016 (≈ 0.0173 µM) | 0.19 (≈ 0.206 µM) | 0.094 (≈ 0.102 µM) | 1000 |  | 
CCCCCCCOc1ccc(C(=O)N[C@@H](CCN)C(=O)N(C)[C@@H]2C(=O)N[C@@H](C)C(=O)N[C@H](C(=O)NCC#N)Cc3ccc(OCCN)c(c3)-c3cc2ccc3OCCN)c2ccccc12 [Compound 295] | < 0.0039 | 0.13 (≈ 0.143 µM) | 0.031 (≈ 0.0342 µM) | 690 |  | 
CCCCCCCCc1ccc(C(=O)N[C@@H](CCN)C(=O)N(C)[C@@H]2C(=O)N[C@@H](C)C(=O)N[C@H](C(=O)NCC#N)Cc3ccc(OCCN)c(c3)-c3cc2ccc3OCCN)c(Cl)c1 [Compound 210] | 0.029 (≈ 0.0326 µM) | 0.11 (≈ 0.124 µM) | 0.094 (≈ 0.106 µM) | 800 |  | 
CCCCCCCOc1cc(C)c(C(=O)N[C@@H](CCN)C(=O)N(C)[C@@H]2C(=O)N[C@@H](C)C(=O)N[C@H](C(=O)NCC#N)Cc3ccc(OCCN)c(c3)-c3cc2ccc3OCCN)c(Cl)c1 [Compound 299] | 0.016 (≈ 0.0177 µM) | 0.5 (≈ 0.553 µM) | 0.094 (≈ 0.104 µM) | 1100 |  | 
CCCCc1ccc(-c2ccc(C(=O)N[C@@H](CC3CCNCC3)C(=O)N(C)[C@@H]3C(=O)N[C@@H](C)C(=O)N[C@H](C(=O)NCC#N)Cc4ccc(OCCN)c(c4)-c4cc3ccc4OCCN)cc2)cc1 [Compound 477] | 0.063 (≈ 0.0679 µM) | 4 (≈ 4.31 µM) | 0.063 (≈ 0.0679 µM) | 680 |  | 
CCCCCCCCc1ccc(C(=O)N[C@@H](CCN)C(=O)N(C)[C@@H]2C(=O)N[C@@H](C)C(=O)N[C@H](C(=O)NCC#N)Cc3ccc(OCCN)c(c3)-c3cc2ccc3OCCN)c(CC(N)=O)c1 [Compound 448] | 0.016 (≈ 0.0176 µM) |  |  | 930 | 0.75 (≈ 0.823 µM) | 0.023 (≈ 0.0252 µM)
CCCCCc1ccc(C(=O)N[C@@H](CCN)C(=O)N(C)[C@@H]2C(=O)N[C@@H](C)C(=O)N[C@H](C(=O)NCC#N)Cc3ccc(OCCN)c(c3)-c3cc2ccc3OCCN)c(C2CC2)c1 [Compound 229] | 0.016 (≈ 0.0188 µM) | 1.5 (≈ 1.76 µM) | 0.047 (≈ 0.0552 µM) | 920 |  | 
